Measurements as given in patent US12103924B2, “Mitogen-activated protein kinase kinase (MEK) degradation compounds and methods of use” (Icahn School of Medicine at Mount Sinai, priority 2020, dated 2024).

Key:
Assay type in all cases: cell-based
[1] = system: HT-29 cells; experiment: MTT cell viability assay, HT-29; conditions: Homo sapiens, 72 h, MTT assay, 3 d treatment, serial dilutions
[2] = system: MEK1/2; experiment: Western blot of MEK1/2 protein levels in HT-29 cells; conditions: 24 h
Procedure: Compound concentrations are 0.3 μM, 1 μM and 3 μM.
The indicated protein levels were determined by Western blots.
The sample was centrifuged at 12,000 g for 10 min at 4° C. to get supernatant as cell lysate. Protein concentrations were quantified using Pierce rapid gold BCA protein assay kit.

[3] = system: HT-29 cells; experiment: WST-8 cell viability assay, HT-29; conditions: WST-8 3 d serial dilutions, clonogenic assay 10 d
Procedure: (§1) Cells were fixed and stained by crystal violet.
(§2) Cells (2000 cells per well) were seeded into 96-well microplates. After 20 h, cells were treated with 0.1% DMSO or indicated serial dilutions of compounds in duplicate or triplicate for 3 days. Cell viability was tested using MTT (M6494, Thermo Fisher Scientific) or WST-8 reagent (CK04, Dojindo). Briefly, 12 mM MTT was prepared in PBS or WST-8 reagent was warmed up to room temperature. 20 μL MTT or CCK-8 was then added to each well and the plates were kept in incubator at 37° C. for 3 h in the dark. For the WST-8 assay, signal was obtained after the incubation. For the MTT assay, cell medium was replaced with 200 μL of DMSO after the incubation, and then cell plates were kept at 37° C. for another 30 min. Absorbance signals for MTT and WST-8 were read at 540 nm and 450 nm respectively, with 690 nm as reference performed with Infinite F PLEX plate reader (TECAN, Morrisville, NC, USA). GI50 values were analyzed using GraphPad Prism 8 from the data of at least three independent experiments.

[4] = system: SK-MEL-28 cells; experiment: WST-8 cell viability assay, SK-MEL-28; conditions: WST-8 3 d serial dilutions
Procedure: as §1, §2

[5] = HT-29 cells, 0.3 μM, 1 μM and 3 μM, western blot normalized with α-tubulin

GI50 [1] [µM]	Compound	MEK1 and MEK2 protein levels [2, 5]	other results
0.4 ± 0.2	Cc1ncsc1-c1ccc(CNC(=O)[C@@H]2C[C@@H](O)CN2C(=O)[C@@H](NC(=O)CCCCCCCCCCNCCCONC(=O)c2ccc(F)c(F)c2Nc2ccc(I)cc2F)C(C)(C)C)cc1 [CPD-014, (2S,4R)-1-((S)-20-(tert-butyl)-1-(3,4-difluoro-2-((2-fluoro-4-iodophenyl)amino)phenyl)-1,18-dioxo-3-oxa-2,7,19-triazahenicosan-21-oyl)-4-hydroxy-N-(4-(4-methylthiazol-5-yl)benzyl)pyrrolidine-2-carboxamide]	reduced	–
–	Cc1ncsc1-c1ccc([C@H](C)NC(=O)[C@H]2C[C@H](O)CN2C(=O)[C@@H](NC(=O)CCCCCCCCCCN(C)CCCONC(=O)c2ccc(F)c(F)c2Nc2ccc(I)cc2F)C(C)(C)C)cc1 [CPD-053, (2R,4S)-1-((S)-20-(tert-butyl)-1-(3,4-difluoro-2-((2-fluoro-4-iodophenyl)amino)phenyl)-7-methyl-1,18-dioxo-3-oxa-2,7,19-triazahenicosan-21-oyl)-4-hydroxy-N-((S)-1-(4-(4-methylthiazol-5-yl)phenyl)ethyl)pyrrolidine-2-carboxamide]	–	growth of cells [3]: did not significantly suppress; growth of cells [4]: did not significantly suppress
1.2 ± 0.2	O=C1CCC(N2C(=O)c3cccc(NCCOCCNCCCONC(=O)c4ccc(F)c(F)c4Nc4ccc(I)cc4F)c3C2=O)C(=O)N1 (centres unmarked) [CPD-019, N-(3-((2-(2-((2-(2,6-dioxopiperidin-3-yl)-1,3-dioxoisoindolin-4-yl)amino)ethoxy)ethyl)amino)propoxy)-3,4-difluoro-2-((2-fluoro-4-iodophenyl)amino)benzamide]	not	–
0.4 ± 0.01	O=C1CCC(N2C(=O)c3cccc(NCCNCCCONC(=O)c4ccc(F)c(F)c4Nc4ccc(I)cc4F)c3C2=O)C(=O)N1 (centres unmarked) [CPD-024, N-(3-((2-((2-(2,6-dioxopiperidin-3-yl)-1,3-dioxoisoindolin-4-yl)amino)ethyl)amino)propoxy)-3,4-difluoro-2-((2-fluoro-4-iodophenyl)amino)benzamide]	not	–
0.5 ± 0.2	O=C1CCC(N2C(=O)c3ccc(NCCCNCCCONC(=O)c4ccc(F)c(F)c4Nc4ccc(I)cc4F)cc3C2=O)C(=O)N1 (centres unmarked) [CPD-041, N-(3-((3-((2-(2,6-dioxopiperidin-3-yl)-1,3-dioxoisoindolin-5-yl)amino)propyl)amino)propoxy)-3,4-difluoro-2-((2-fluoro-4-iodophenyl)amino)benzamide]	not	–
0.5 ± 0.06	O=C1CCC(N2C(=O)c3ccc(NCCOCCOCCOCCOCCNCCCONC(=O)c4ccc(F)c(F)c4Nc4ccc(I)cc4F)cc3C2=O)C(=O)N1 (centres unmarked) [CPD-050, N-((1-((2-(2,6-dioxopiperidin-3-yl)-1,3-dioxoisoindolin-5-yl)amino)-3,6,9,12-tetraoxa-15-azaoctadecan-18-yl)oxy)-3,4-difluoro-2-((2-fluoro-4-iodophenyl)amino)benzamide]	significantly degraded	–
0.5 ± 0.2	O=C1CCC(N2C(=O)c3ccc(NCCCCCCCNCCCONC(=O)c4ccc(F)c(F)c4Nc4ccc(I)cc4F)cc3C2=O)C(=O)N1 (centres unmarked) [CPD-045, N-(3-((7-((2-(2,6-dioxopiperidin-3-yl)-1,3-dioxoisoindolin-5-yl)amino)heptyl)amino)propoxy)-3,4-difluoro-2-((2-fluoro-4-iodophenyl)amino)benzamide]	significantly degraded	–
–	O=C(NOC[C@H](O)CO)c1ccc(F)c(F)c1Nc1ccc(I)cc1F [PD0325901, reference compound]	–	MEK1 and MEK2 protein levels ([2]; HT-29 cells, 0.1, 0.3, or 1 μM): not
0.3 ± 0.1	O=C1CCC(N2C(=O)c3ccc(NCCCCCCCCNCCCONC(=O)c4ccc(F)c(F)c4Nc4ccc(I)cc4F)cc3C2=O)C(=O)N1 (centres unmarked) [CPD-046, N-(3-((8-((2-(2,6-dioxopiperidin-3-yl)-1,3-dioxoisoindolin-5-yl)amino)octyl)amino)propoxy)-3,4-difluoro-2-((2-fluoro-4-iodophenyl)amino)benzamide]	significantly degraded	–
1.3 ± 0.1	Cc1ncsc1-c1ccc(CNC(=O)[C@@H]2C[C@@H](O)CN2C(=O)[C@@H](NC(=O)COCCOCCOCCNCCCONC(=O)c2ccc(F)c(F)c2Nc2ccc(I)cc2F)C(C)(C)C)cc1 [CPD-015, (2S,4R)-1-((S)-20-(tert-butyl)-1-(3,4-difluoro-2-((2-fluoro-4-iodophenyl)amino)phenyl)-1,18-dioxo-3,10,13,16-tetraoxa-2,7,19-triazahenicosan-21-oyl)-4-hydroxy-N-(4-(4-methylthiazol-5-yl)benzyl)pyrrolidine-2-carboxamide]	reduced	–
0.8 ± 0.2	O=C1CCC(N2C(=O)c3cccc(NCCOCCOCCOCCNCCCONC(=O)c4ccc(F)c(F)c4Nc4ccc(I)cc4F)c3C2=O)C(=O)N1 (centres unmarked) [CPD-021, N-((1-((2-(2,6-dioxopiperidin-3-yl)-1,3-dioxoisoindolin-4-yl)amino)-3,6,9-trioxa-12-azapentadecan-15-yl)oxy)-3,4-difluoro-2-((2-fluoro-4-iodophenyl)amino)benzamide]	–	–
0.5 ± 0.1	O=C1CCC(N2C(=O)c3ccc(NCCCCCNCCCONC(=O)c4ccc(F)c(F)c4Nc4ccc(I)cc4F)cc3C2=O)C(=O)N1 (centres unmarked) [CPD-043, N-(3-((5-((2-(2,6-dioxopiperidin-3-yl)-1,3-dioxoisoindolin-5-yl)amino)pentyl)amino)propoxy)-3,4-difluoro-2-((2-fluoro-4-iodophenyl)amino)benzamide]	significantly degraded	–
1.4 ± 0.2	Cc1ncsc1-c1ccc(CNC(=O)[C@@H]2C[C@@H](O)CN2C(=O)[C@@H](NC(=O)CCCCCCNCCCONC(=O)c2ccc(F)c(F)c2Nc2ccc(I)cc2F)C(C)(C)C)cc1 [CPD-001, (2S,4R)-1-((S)-16-(tert-Butyl)-1-(3,4-difluoro-2-((2-fluoro-4-iodophenyl)amino)phenyl)-1,14-dioxo-3-oxa-2,7,15-triazaheptadecan-17-oyl)-4-hydroxy-N-(4-(4-methylthiazol-5-yl)benzyl)pyrrolidine-2-carboxamide]	reduced	–
1.3 ± 0.5	O=C1CCC(N2C(=O)c3cccc(NCCOCCOCCNCCCONC(=O)c4ccc(F)c(F)c4Nc4ccc(I)cc4F)c3C2=O)C(=O)N1 (centres unmarked) [CPD-020, N-(3-((2-(2-(2-((2-(2,6-dioxopiperidin-3-yl)-1,3-dioxoisoindolin-4-yl)amino)ethoxy)ethoxy)ethyl)amino)propoxy)-3,4-difluoro-2-((2-fluoro-4-iodophenyl)amino)benzamide]	–	–
0.099 ± 0.008	Cc1ncsc1-c1ccc([C@H](C)NC(=O)[C@@H]2C[C@@H](O)CN2C(=O)[C@@H](NC(=O)CCCCCCCCCCCNCCCONC(=O)c2ccc(F)c(F)c2Nc2ccc(I)cc2F)C(C)(C)C)cc1 [CPD-033, (2S,4R)-1-((S)-21-(tert-butyl)-1-(3,4-difluoro-2-((2-fluoro-4-iodophenyl)amino)phenyl)-1,19-dioxo-3-oxa-2,7,20-triazadocosan-22-oyl)-4-hydroxy-N—((S)-1-(4-(4-methylthiazol-5-yl)phenyl)ethyl)pyrrolidine-2-carboxamide]	–	–
